Experimental data published in patent US8501755B2, “Tetrahydropyridothienopyrimidine compounds and methods of use thereof” (Bayer Intellectual Property GmbH, priority 2006, dated 2013).

Columns and labels:
Assay type in all cases: cell-based
A431 cells = assay: In vitro tumor cell proliferation assay (Cell Titer-Glo) in A431 cells; conditions: Homo sapiens, A-431, 72 h, A431 human epidermoid carcinoma overexpressing HER1; 72 hours exposure; read-out: IC50, activities in A431 cell lines
Procedure, shortened: (§1)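 Viability after 72 h drug exposure at 37 °C was read as CellTiter-Glo ATP luminescence, giving IC50. Cells (2.5×10^3/well, RPMI + 10% FBS) were compound-treated one day post-seeding, 0.1% DMSO final: A431 overexpresses HER1, N87 overexpresses HER2 and HER1.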

N87 = assay: In vitro tumor cell proliferation assay (Cell Titer-Glo) in N87 cells; conditions: N87 human gastric carcinoma overexpressing HER2 and HER1; 72 hours exposure; read-out: IC50, activities in N87 cell lines
Procedure, shortened: as §1

H1975 cells = assay: In vitro tumor cell proliferation assay (Cell Titer-Glo) in H1975 cells; conditions: NCI-H1975; H1975 human NSCLC expressing mutant HER1 (L858R,T790M); 72 hours exposure; read-out: IC50, activities in H 1975 cell lines
Procedure, shortened: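 After 72 h compound exposure at 37° C (top 10 uM down to 64 pM, 0.1% DMSO), viability of EGFR L858R/T790M-mutant H1975 cells was read as ATP luminescence.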

| SMILES | IC50 (A431 cells) | IC50 (N87) | IC50 (H1975 cells) |
| --- | --- | --- | --- |
| CC1CN(C/C=C/C(=O)N2CCc3c(sc4ncnc(Nc5ccc(OCc6ccccn6)c(Cl)c5)c34)C2)CC(C)O1 (stereo not drawn) [Example 53, N-[3-chloro-4-(pyridin-2-ylmethoxy)phenyl]-7-((2E)-4-(2,6-dimethylmorpholin-4-yl)but-2-enoyl]-5,6,7,8-tetrahydropyrido [4′,3′:4,5]thieno[2,3-d]pyrimidin-4-amine] | 1000 to 10000 nM | < 200 nM | 1000 to 10000 nM |
| CN(C/C=C/C(=O)N1CCc2c(sc3ncnc(Nc4ccc(F)c(Cl)c4)c23)C1)C1CCCCC1 [Example 54, N-(3-chloro-4-fluorophenyl)-7-{(2E)-4-[cyclohexyl(methyl)amino]but-2-enoyl}-5,6,7,8-tetrahydropyrido [4′,3′:4,5]thieno[2,3-d]pyrimidin-4-amine] | 200 to 1000 nM | < 200 nM | 200 to 1000 nM |
| CC1CCCCN1C/C=C/C(=O)N1CCc2c(sc3ncnc(Nc4ccc(F)c(Cl)c4)c23)C1 (stereo not drawn) [Example 56, N-(3-chloro-4-fluorophenyl)-7-[(2E)-4-(2-methylpiperidin-1-yl)but-2-enoyl]-5,6,7,8-tetrahydropyrido [4′,3′:4,5]thieno[2,3-d]pyrimidin-4-amine] | 200 to 1000 nM | < 200 nM | 200 to 1000 nM |
| O=C(/C=C/CN1CCC(CCO)CC1)N1CCc2c(sc3ncnc(Nc4ccc(F)c(Cl)c4)c23)C1 [Example 57, 2-{1-[(2E)-4-{4-[(3-chloro-4-fluorophenyl)amino]-5,8-dihydropyrido [4′,3′:4,5]thieno[2,3-d]pyrimidin-7(6H)-yl}-4-oxobut-2-en-1-yl]piperidin-4-yl}ethanol] | 1000 to 10000 nM | < 200 nM | 200 to 1000 nM |
| O=C(/C=C/CN1CCC(O)CC1)N1CCc2c(sc3ncnc(Nc4ccc(F)c(Cl)c4)c23)C1 [Example 58, 1-[(2E)-4-{4-[(3-chloro-4-fluorophenyl)amino]-5,8-dihydropyrido [4′,3′:4,5]thieno[2,3-d]pyrimidin-7(6H)-yl}-4-oxobut-2-en-1-yl]piperidin-4-ol] | 1000 to 10000 nM | < 200 nM | 1000 to 10000 nM |
| CC1CCCN1C/C=C/C(=O)N1CCc2c(sc3ncnc(Nc4ccc(F)c(Cl)c4)c23)C1 (stereo not drawn) [Example 59, N-(3-chloro-4-fluorophenyl)-7-[(2E)-4-(2-methylpyrrolidin-1-yl)but-2-enoyl]-5,6,7,8-tetrahydropyrido [4′,3′:4,5]thieno[2,3-d]pyrimidin-4-amine] | < 200 nM | < 200 nM | < 200 nM |
| CC1CCCC(C)N1C/C=C/C(=O)N1CCc2c(sc3ncnc(Nc4ccc(F)c(Cl)c4)c23)C1 (stereo not drawn) [Example 60, N-(3-chloro-4-fluorophenyl)-7-[(2E)-4-(2,6-dimethylpiperidin-1-yl)but-2-enoyl]-5,6,7,8-tetrahydropyrido [4′,3′:4,5]thieno[2,3-d]pyrimidin-4-amine] | 200 to 1000 nM | < 200 nM | 200 to 1000 nM |
| CCN(C/C=C/C(=O)N1CCc2c(sc3ncnc(Nc4ccc(F)c(Cl)c4)c23)C1)C1CCCCC1 [Example 61, N-(3-chloro-4-fluorophenyl)-7-{(2E)-4-[cyclohexyl(ethyl)amino]but-2-enoyl}-5,6,7,8-tetrahydropyrido [4′,3′:4,5]thieno[2,3-d]pyrimidin-4-amine] | 200 to 1000 nM | < 200 nM | 200 to 1000 nM |
| O=C(/C=C/CN1CCN(CCO)CC1)N1CCc2c(sc3ncnc(Nc4ccc(OCc5ccccn5)c(Cl)c4)c23)C1 [Example 62, 2-(4-{(2E)-4-[4-{[3-chloro-4-(pyridin-2-ylmethoxy)phenyl]amino}-5,8-dihydropyrido [4′,3′:4,5]thieno[2,3-d]pyrimidin-7(6H)-yl]-4-oxobut-2-en-1-yl}piperazin-1-yl)ethanol] | 200 to 1000 nM | < 200 nM | 200 to 1000 nM |

Now from value to molecule:

| IC50 (A431 cells) | IC50 (N87) | IC50 (H1975 cells) | SMILES |
| --- | --- | --- | --- |
| 200 to 1000 nM | < 200 nM | 200 to 1000 nM | CC(C)N(C)C/C=C/C(=O)N1CCc2c(sc3ncnc(Nc4ccc(OCc5ccccn5)c(Cl)c4)c23)C1 [Example 63, N-[3-chloro-4-(pyridin-2-ylmethoxy)phenyl]-7-{(2E)-4-[isopropyl(methyl)amino]but-2-enoyl}-5,6,7,8-tetrahydropyrido [4′,3′:4,5]thieno[2,3-d]pyrimidin-4-amine] |
| 200 to 1000 nM | < 200 nM | 200 to 1000 nM | CC1CCCCN1C/C=C/C(=O)N1CCc2c(sc3ncnc(Nc4ccc(OCc5ccccn5)c(Cl)c4)c23)C1 (stereo not drawn) [Example 64] |
| 200 to 1000 nM | < 200 nM | < 200 nM | CN(C/C=C/C(=O)N1CCc2c(sc3ncnc(Nc4ccc(OCc5ccccn5)c(Cl)c4)c23)C1)C(C)(C)C [Example 65, 7-{(2E)-4-[tert-butyl(methyl)amino]but-2-enoyl}-N-[3-chloro-4-(pyridin-2-ylmethoxy)phenyl]-5,6,7,8-tetrahydropyrido [4′,3′:4,5]thieno[2,3-d]pyrimidin-4-amine] |
| 200 to 1000 nM | < 200 nM | 200 to 1000 nM | CC(C)CN(C)C/C=C/C(=O)N1CCc2c(sc3ncnc(Nc4ccc(OCc5ccccn5)c(Cl)c4)c23)C1 [Example 66, N-[3-chloro-4-(pyridin-2-ylmethoxy)phenyl]-7-{(2E)-4-[isobutyl(methyl)amino]but-2-enoyl}-5,6,7,8-tetrahydropyrido [4′,3′:4,5]thieno[2,3-d]pyrimidin-4-amine] |
| 200 to 1000 nM | < 200 nM | 200 to 1000 nM | CC1CCCN(C/C=C/C(=O)N2CCc3c(sc4ncnc(Nc5ccc(OCc6ccccn6)c(Cl)c5)c34)C2)C1 (stereo not drawn) [Example 67, N-[3-chloro-4-(pyridin-2-ylmethoxy)phenyl]-7-[(2E)-4-(3-methylpiperidin-1-yl)but-2-enoyl]-5,6,7,8-tetrahydropyrido [4′,3′:4,5]thleno[2,3-d]pyrimidin-4-amine] |
| 200 to 1000 nM | < 200 nM | 200 to 1000 nM | O=C(/C=C/CN1CCCCCC1)N1CCc2c(sc3ncnc(Nc4ccc(OCc5ccccn5)c(Cl)c4)c23)C1 [Example 68, 7-[(2E)-4-azepan-1-ylbut-2-enoyl]-N-[3-chloro-4-(pyridin-2-ylmethoxy)phenyl]-5,6,7,8-tetrahydropyrido [4′,3′:4,5]thieno[2,3-d]pyrimidin-4-amine] |
| 200 to 1000 nM | < 200 nM | 200 to 1000 nM | O=C(/C=C/CN1CCCC(CO)C1)N1CCc2c(sc3ncnc(Nc4ccc(F)c(Cl)c4)c23)C1 (stereo not drawn) [Example 69, {1-[(2E)-4-{4-[(3-chloro-4-fluorophenyl)amino]-5,8-dihydropyrido [4′,3′:4,5]thieno[2,3-d]pyrimidin-7(6H)-yl}-4-oxobut-2-en-1-yl]piperidin-3-yl}methanol] |
| 1000 to 10000 nM | < 200 nM | < 200 nM | CCN(C/C=C/C(=O)N1CCc2c(sc3ncnc(Nc4ccc(OCc5ccccn5)c(Cl)c4)c23)C1)C(C)C [Example 70, N-[3-chloro-4-(pyridin-2-ylmethoxy)phenyl]-7-{(2E)-4-[ethyl(isopropyl)amino]but-2-enoyl}-5,6,7,8-tetrahydropyrido [4′,3′:4,5]thieno[2,3-d]pyrimidin-4-amine] |
| 1000 to 10000 nM | < 200 nM | 200 to 1000 nM | CCN(CC)C/C=C/C(=O)N1CCc2c(sc3ncnc(Nc4ccc(OCc5cnccn5)c(Cl)c4)c23)C1 [Example 72, N-[3-chloro-4-(pyrazin-2-ylmethoxy)phenyl]-7-[(2E)-4-(diethylamino)but-2-enoyl]-5,6,7,8-tetrahydropyrido [4′,3′:4,5]thieno[2,3-d]pyrimidin-4-amine] |
| 1000 to 10000 nM | < 200 nM | 1000 to 10000 nM | CCN(CC)C/C=C/C(=O)N1CCc2c(sc3ncnc(Nc4ccc(OCc5cccc(C)n5)c(Cl)c4)c23)C1 [Example 73, N-{3-chloro-4-[(6-methylpyridin-2-yl)methoxy]phenyl}-7-[(2E)-4-(diethylamino)but-2-enoyl]-5,6,7,8-tetrahydropyrido [4′,3′:4,5]thieno[2,3-d]pyrimidin-4-amine] |
| 1000 to 10000 nM | < 200 nM | 1000 to 10000 nM | Cc1cccc(COc2ccc(Nc3ncnc4sc5c(c34)CCN(C(=O)/C=C/CN(C)C)C5)cc2Cl)n1 [Example 74, N-{3-chloro-4-[(6-methylpyridin-2-yl)methoxy]phenyl}-7-[(2E)-4-(dimethylamino)but-2-enoyl]-5,6,7,8-tetrahydropyrido [4′,3′:4,5]thieno[2,3-d]pyrimidin-4-amine] |
| 1000 to 10000 nM | < 200 nM | 200 to 1000 nM | Cc1cccc(COc2ccc(Nc3ncnc4sc5c(c34)CCN(C(=O)/C=C/CN3CCCCC3)C5)cc2Cl)n1 [Example 75, N-{3-chloro-4-[(6-methylpyridin-2-yl)methoxy]phenyl}-7-[(2E)-4-piperidin-1-ylbut-2-enoyl]-5,6,7,8-tetrahydropyrido [4′,3′:4,5]thieno[2,3-d]pyrimidin-4-amine] |
| 1000 to 10000 nM | < 200 nM | 1000 to 10000 nM | CCN(C)C/C=C/C(=O)N1CCc2c(sc3ncnc(Nc4ccc(OCc5cccc(C)n5)c(Cl)c4)c23)C1 [Example 76, N-{3-chloro-4-[(6-methylpyridin-2-yl)methoxy]phenyl}-7-{(2E)-4-[ethyl(methyl)amino]but-2-enoyl}-5,6,7,8-tetrahydropyrido [4′,3′:4,5]thieno[2.3-d]pyrimidin-4-amine] |
| 1000 to 10000 nM | < 200 nM | 200 to 1000 nM | Cc1cccc(COc2ccc(Nc3ncnc4sc5c(c34)CCN(C(=O)/C=C/CN(C)C(C)C)C5)cc2Cl)n1 [Example 77, N-{3-chloro-4-[(6-methylpyridin-2-yl)methoxy]phenyl}-7-{(2E)-4-[isopropyl(methyl)amino]but-2-enoyl}-5,6,7,8-tetrahydropyrido [4′,3′:4,5]thieno[2,3-d]pyrimidin-4-amine] |
